Non-standard residues stand in square brackets, D forms with d. No end group written: not given here.
Experiments:
3T3-L1 mouse adipocytes [1] = test: Free fatty acid levels in 3T3-L1 mouse adipocytes (Example 12, 10 μM); assay type: cell-based; conditions: peptide 10 μM, 20-22 h then 3 h with isoproterenol 1 nM
Description: The effect of the peptides on fatty acid metabolism can be assessed using an assay of free fatty acid levels in cultured cells such as mouse adipocytes. Peptides were initially prepared as 10 mM stock in DMSO, diluted to 1 mM in H2O, and used at a final concentration of 10 μM (0.1% DMSO). […] Insulin at 100 nM was added to control wells.

C2C12 cells [2] = test: Cell proliferation in C2C12 cells (Cyquant DNA dye binding); assay type: cell-based, mouse; conditions: peptide 10 μM, 72 hours with readdition every 24 hours, relative to 0.1% DMSO control
Description: The effect of the peptides on cell proliferation was assessed using a DNA dye binding assay in cultured cells such as mouse myoblast cells. Peptides were initially prepared as 10 mM stock in DMSO, diluted to 1 mM in H2O, and added at a final concentration of 10 μM (0.1% DMSO). Lovastatin was used as a growth arrest control at final concentration of 10 μM. […] C2C12 cells were grown in DMEM supplemented with 20% FBS with 100 IU/ml penicillin and 100 μg/ml streptomycin. […] C2C12 cells were seeded at 800 cells per well on 96-well plates. […] Cell proliferation was determined using Cyquant Direct Nucleic Acid Stain (Thermo Fisher Scientific, Waltham, Mass.) according to the manufacturer's instructions. Fluorescence for each sample well on the plate was measured using a Cytation 3 plate reader at Ex/Em=495/535 nm (BioTek, Winooski, Vt.). Activity was calculated relative to 0.1% DMSO untreated control. The relative standard deviation for the lovastatin control was <27%. The cell proliferation for the lovastatin control was <25% of the value for untreated control.

C2C12 cells [3] = test: Cellular ROS levels induced by TBHP in C2C12 cells (DCFDA); assay type: cell-based, mouse; conditions: peptide 10 μM 18-20 hours, then TBHP 100 μM 1 hour; relative to TBHP control
Description: The protective or synergistic effect of the peptides on cellular levels of reactive oxygen species (ROS) induced by oxidative stress can be assessed using an assay of ROS in cultured cells such as mouse myoblasts exposed to a suitable oxidative stress. Peptides were initially prepared as 10 mM stock in DMSO, diluted to 1 mM in H2O, and added at a final concentration of 10 μM (0.1% DMSO). […] TBHP was used at final concentration of 100 μM. Sulforaphane at final concentration of 10 μM was used as a protective control against TBHP induced ROS production. […] C2C12 cells were grown in DMEM supplemented with 20% FBS with 100 IU/ml penicillin and 100 μg/ml streptomycin. […] C2C12 cells were seeded at 7,500 cells per well on 96-well plates. […] After 18-20 hours of incubation the cells were loaded with DCFDA for 45 min. TBHP at 100 μM was then added to the appropriate wells for 1 hour. ROS activity was determined using a DCFDA Cellular ROS Detection Assay kit (Abcam, Cambridge, Mass.) according to the manufacturer's instructions. Fluorescence in each sample well on the plate was measured using a Cytation 3 plate reader at Ex/Em=485/535 nm (BioTek, Winooski, Vt.). Activity was calculated relative to TBHP control. The relative standard deviation of the sulforaphane control was <20%. The ROS level produced by the sulforaphane control in the presence of TBHP was 52% of the TBHP control.

3T3-L1 mouse adipocytes [4] = test: Free fatty acid levels in cultured 3T3-L1 mouse adipocytes and insulin dependence (Example 17); assay type: cell-based; conditions: isoproterenol 0.1 nM; for Free Fatty Acid Levels, Percent of Isoproterenol Control Activity No Insulin: peptide 10 μM alone, relative to isoproterenol treated cells; for Free Fatty Acid Levels, Percent of Isoproterenol Control Activity With Insulin: peptide 10 μM with 0.25 nM insulin, relative to 0.25 nM insulin treated cells
C2C12 cells [5] = test: Glucose utilization in cultured C2C12 cells and insulin dependence; assay type: cell-based, mouse; conditions: 22 h; for Glucose Utilization, Percent of Control Activity No Insulin: peptide 10 μM alone, glucose in medium relative to untreated cells; for Glucose Utilization, Percent of Control Activity With Insulin: peptide 10 μM with 5-20 nM insulin, glucose in medium relative to insulin treated cells
Source text: The effect of the peptides on glucose homeostasis can be assessed using an assay to monitor glucose utilization by cultured cells such as mouse myotubes. […] C2C12 mouse muscle cell line was purchased from Millipore Sigma (Saint Louis, Mo.). […] Three days after plating the medium was removed and with Differentiation Medium (DMEM/low glucose (1 g/L)+2% Horse Serum+antibiotics) added. […] After 5 days of differentiation, the medium was removed from myotube cultures and replaced with Assay Medium (DMEM/low glucose (1 g/L)+antibiotics). […] Following the 5 h incubation the medium was removed and fresh Assay Medium containing compounds added; 10 μM peptide in absence or presence of 5-20 nM insulin, or 1 mM metformin as a potent stimulator of glucose utilization. […] Following 22 h incubation, conditioned medium from each well was transferred to a fresh 96-well plate. Glucose concentrations in the medium were determined using a Glucose Assay kit (Abcam; Cambridge, Mass.) according to the manufacturer's instructions; absorbance measured using a Cytation 3 plate reader at 570 nm (BioTek, Winooski, Vt.). Absorbance values were expressed as percent control activity relative to untreated treated cells (no insulin) for 10 μM peptide alone or 5-20 nM insulin treated cells (with insulin) for 10 μM peptide in presence of 5-20 nM insulin. Untreated cells were used as reference for basal glucose utilization. The relative standard deviation from plate to plate of untreated control was <10%. Metformin at 1 mM was used as a potent control for increasing glucose utilization. Glucose levels for metformin (1 mM) treatment were <10% of the untreated control value. Data are presented as averages values from 2-3 independent experiments with each data point performed in triplicate.

| Compound | Free Fatty Acid Levels, Percent of Isoproterenol Control Activity (3T3-L1 mouse adipocytes [1]) [%] | Cell Proliferation, Percent of Control (C2C12 cells [2]) [%] | Cellular ROS Levels Induced by TBHP, Percent of Control (C2C12 cells [3]) [%] | Free Fatty Acid Levels, Percent of Isoproterenol Control Activity No Insulin (3T3-L1 mouse adipocytes [4]) [%] | Free Fatty Acid Levels, Percent of Isoproterenol Control Activity With Insulin (3T3-L1 mouse adipocytes [4]) [%] | Glucose Utilization, Percent of Control Activity No Insulin (C2C12 cells [5]) [%] | Glucose Utilization, Percent of Control Activity With Insulin (C2C12 cells [5]) [%] |
| --- | --- | --- | --- | --- | --- | --- | --- |
| 10 (RRMMGMVYQCLCG[dA]; cysteine pairing not given here) [compound 10] | 24.9 | 101.5 | 102.3 | 97.9 | 48.7 | 102.6 | 76.3 |
| 13 (RRMMGMVFQELCG[dA]) [compound 13] | 66.0 | 90.0 | 106.8 | 105 | 56.4 | 104.4 | 97.8 |
| 18 (RRXXGXVFQCLCGA; (3)..(3) Xaa is Norleucine; (4)..(4) Xaa is Norleucine; (6)..(6) Xaa is Norleucine; (14)..(14) D-Ala) [compound 18] | 77.3 | 74.9 | 109.4 | 110 | 81.1 | 103.6 | 122.1 |
| CSCC[C@H](NC(=O)CNC(=O)[C@H](CCSC)NC(=O)[C@H](CCSC)NC(=O)[C@H](CCCNC(=N)N)NC(=O)[C@@H](N)CCCNC(=N)N)C(=O)N[C@H](C(=O)N[C@@H](Cc1ccccc1)C(=O)N[C@@H](CCC(N)=O)C(=O)N[C@@H](CO)C(=O)N[C@@H](CC(C)C)C(=O)N[C@@H](CS)C(=O)NCC(=O)N[C@H](C)C(=O)O)C(C)C [compound 15] | 90.8 | 93.5 | 105.9 | 109 | 89.0 | 103 | 106.9 |
| 17 (RRMMGMVFQSLSG[dA]) [compound 17] | 77.9 | 89.1 | 113.6 | 98.4 | 87.7 | 102.6 | 96.2 |
| 19 (RRMVFQCLCG[dA]; cysteine pairing not given here) [compound 19] | 31.0 | 92.3 | 92 | 105 | 79.0 | 100.1 | 76.5 |
| 16 (RRMMGMVFQCLSG[dA]) [compound 16] | 58.8 | 89.6 | 106.6 | 110 | 63.0 | 99.7 | 88.4 |
| 14 (RRMMGMVFQCLEG[dA]) [compound 14] | 46.5 | 97.2 | 105.1 | 100 | 51.0 | 102.4 | 112.3 |
| 8 (RRMMGMVFQCLCG[dA]; cysteine pairing not given here) [compound 8] | 34.7 | 98.1 | 102.1 | 106 | 57.8 | 90.8 | 85.5 |
| 12 (RRMMGMVEQCLCG[dA]; cysteine pairing not given here) [compound 12] | 51.3 | 119.3 | 105 | 103 | 54.6 | 102.3 | 84.5 |
| 11 (RRMMGMVAQCLCGA) [compound 11] | 59.2 | 88.1 | 100.6 | 104 | 58.5 | 107.2 | 84.5 |

Reference: patent publication US20220324909A1, “THERAPEUTIC PEPTIDES” (COHBAR, INC., priority 2019, published 2022)
